Test results taken from patent publication US20250235543A1, “MODIFIED PROTEINS AND PROTEIN DEGRADERS” (Cullgen (Shanghai), Inc., priority 2021, published 2025).
Where two headings read alike, the source gives them in different places.

Assays:
CDK4 = biological target: T1, CDK4 (Homo sapiens, UniProt P11802); assay: CDK4 percentage degradation in Calu-1 cells (immunoblotting); assay type: cell-based; details: read-out: CDK4 Degradation (200 nM)
T1 construct: endogenous in cells; host or cells: Calu-1
In short: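 Cultured cells were rinsed once in cold PBS and lysed in cold RIPA buffer containing protease and phosphatase inhibitors, with gentle agitation at 4° C. for 30 min. Lysates were centrifuged at 13,000 rpm for 10 min at 4° C., and protein was quantified by BCA. Samples were then separated by SDS-PAGE, detected with ECL, and the CDK4 bands quantified in Image Lab.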

cyclin D1 = assay: Cyclin D1 percentage degradation in Calu-1 cells (immunoblotting); assay type: cell-based; details: 200 nM, 16 hours
In short: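 Cells were rinsed once in cold PBS and lysed in cold RIPA buffer containing protease and phosphatase inhibitors, with gentle agitation at 4° C. for 30 min. Lysates were spun at 13,000 rpm for 10 min at 4° C., protein was measured by BCA, and samples were boiled in Laemmli buffer at 99° C. for 5 min before SDS-PAGE immunoblotting.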

T1 sequence (P11802 2-303 limits assumed): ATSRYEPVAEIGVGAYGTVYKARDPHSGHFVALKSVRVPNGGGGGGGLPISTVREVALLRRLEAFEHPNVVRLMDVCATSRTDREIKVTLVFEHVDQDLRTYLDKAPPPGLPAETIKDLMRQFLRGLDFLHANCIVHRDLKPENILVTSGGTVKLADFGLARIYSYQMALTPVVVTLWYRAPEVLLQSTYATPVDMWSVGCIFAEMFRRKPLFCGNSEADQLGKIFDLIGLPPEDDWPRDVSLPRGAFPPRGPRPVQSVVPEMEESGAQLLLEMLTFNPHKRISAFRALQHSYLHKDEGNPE
T1 sequence (P24385 whole entry partner): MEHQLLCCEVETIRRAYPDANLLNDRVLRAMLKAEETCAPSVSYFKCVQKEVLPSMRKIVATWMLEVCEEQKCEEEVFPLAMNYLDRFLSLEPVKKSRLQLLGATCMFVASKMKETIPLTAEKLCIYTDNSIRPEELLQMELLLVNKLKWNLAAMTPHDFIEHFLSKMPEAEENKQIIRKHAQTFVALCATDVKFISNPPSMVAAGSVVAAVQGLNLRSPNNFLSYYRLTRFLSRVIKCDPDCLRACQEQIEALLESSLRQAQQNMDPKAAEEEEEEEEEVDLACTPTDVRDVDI
T1 sequence (Q16531 2-1140 limits assumed, further chain): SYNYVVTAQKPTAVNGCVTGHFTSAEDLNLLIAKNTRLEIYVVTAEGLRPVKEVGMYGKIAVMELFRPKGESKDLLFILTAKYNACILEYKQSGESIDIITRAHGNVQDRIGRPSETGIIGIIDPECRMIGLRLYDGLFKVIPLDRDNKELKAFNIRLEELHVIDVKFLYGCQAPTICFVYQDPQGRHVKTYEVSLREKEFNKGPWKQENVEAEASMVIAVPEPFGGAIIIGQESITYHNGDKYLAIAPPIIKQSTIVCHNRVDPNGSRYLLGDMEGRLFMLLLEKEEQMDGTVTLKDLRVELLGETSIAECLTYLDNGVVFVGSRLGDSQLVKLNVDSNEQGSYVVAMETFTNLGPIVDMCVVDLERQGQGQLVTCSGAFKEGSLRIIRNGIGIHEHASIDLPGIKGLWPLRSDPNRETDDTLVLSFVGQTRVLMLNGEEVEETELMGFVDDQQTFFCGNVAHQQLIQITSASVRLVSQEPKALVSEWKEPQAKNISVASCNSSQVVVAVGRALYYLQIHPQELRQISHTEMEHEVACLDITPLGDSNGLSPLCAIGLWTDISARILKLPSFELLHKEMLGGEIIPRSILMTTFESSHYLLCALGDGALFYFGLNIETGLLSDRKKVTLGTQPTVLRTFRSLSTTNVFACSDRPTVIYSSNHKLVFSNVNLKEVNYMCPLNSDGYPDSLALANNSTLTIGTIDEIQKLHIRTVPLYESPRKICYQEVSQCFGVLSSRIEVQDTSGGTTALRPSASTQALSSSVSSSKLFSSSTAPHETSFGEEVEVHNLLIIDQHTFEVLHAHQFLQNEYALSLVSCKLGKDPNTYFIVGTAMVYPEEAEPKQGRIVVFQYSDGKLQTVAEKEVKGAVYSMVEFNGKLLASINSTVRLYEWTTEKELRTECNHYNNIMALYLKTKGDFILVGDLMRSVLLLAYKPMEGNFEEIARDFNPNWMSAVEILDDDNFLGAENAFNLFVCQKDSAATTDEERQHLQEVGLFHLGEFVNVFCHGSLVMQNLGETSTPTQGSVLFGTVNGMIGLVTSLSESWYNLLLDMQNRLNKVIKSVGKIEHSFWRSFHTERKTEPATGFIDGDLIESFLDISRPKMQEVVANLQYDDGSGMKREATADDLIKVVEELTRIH

Row | inhibition at 0.2 µM (CDK4; Calu-1 cells, 200 nM, 16 hours) [%] | Compound | CyclinD1 Degradation (200 nM) (cyclin D1) | inhibition at 0.2 µM (CDK4; Calu-1, 16 h) [%]
1 | < 30 | CC(=O)c1c(C)c2cnc(Nc3ccc(N4CCN(CC(=O)NCCCCCCCCNc5ccc(C)c(C(=O)Nc6nc(C)c(C)s6)c5)CC4)cn3)nc2n(C2CCCC2)c1=O [CPD-095, 5-((8-(2-(4-(6-((6-Acetyl-8-cyclopentyl-5-methyl-7-oxo-7,8-dihydropyrido[2,3-d]pyrimidin-2-yl)amino)pyridin-3-yl)piperazin-1-yl)acetamido)octyl)amino)-N-(4,5-dimethylthiazol-2-yl)-2-methylbenzamide] | D (protein percentage degradation <30%) | 
2 | < 30 | CC(=O)c1c(C)c2cnc(Nc3ccc(N4CCN(CC(=O)NCCOCCNc5ccc(C)c(C(=O)Nc6nc(C)c(C)s6)c5)CC4)cn3)nc2n(C2CCCC2)c1=O [CPD-096, 5-((2-(2-(2-(4-(6-((6-Acetyl-8-cyclopentyl-5-methyl-7-oxo-7,8-dihydropyrido[2,3-d]pyrimidin-2-yl)amino)pyridin-3-yl)piperazin-1-yl)acetamido)ethoxy)ethyl)amino)-N-(4,5-dimethylthiazol-2-yl)-2-methylbenzamide] | D (protein percentage degradation <30%) | 
3 | 50 to 80 | CC(=O)c1c(C)c2cnc(Nc3ccc(N4CCN(CC(=O)NCCOCCOCCOCCOCCOCCNc5ccc(C)c(C(=O)Nc6nc(C)c(C)s6)c5)CC4)cn3)nc2n(C2CCCC2)c1=O [CPD-097, 5-((1-(4-(6-((6-Acetyl-8-cyclopentyl-5-methyl-7-oxo-7,8-dihydropyrido[2,3-d]pyrimidin-2-yl)amino)pyridin-3-yl)piperazin-1-yl)-2-oxo-6,9,12,15,18-pentaoxa-3-azaicosan-20-yl)amino)-N-(4,5-dimethylthiazol-2-yl)-2-methylbenzamide] | A (protein percentage degradation >=80%) | 
4 | < 30 | CC(=O)c1c(C)c2cnc(Nc3ccc(N4CCN(CC(=O)NCCCNc5cccc(C(=O)Nc6nc(C)c(C)s6)c5C)CC4)cn3)nc2n(C2CCCC2)c1=O [CPD-098, 3-((3-(2-(4-(6-((6-Acetyl-8-cyclopentyl-5-methyl-7-oxo-7,8-dihydropyrido[2,3-d]pyrimidin-2-yl)amino)pyridin-3-yl)piperazin-1-yl)acetamido)propyl)amino)-N-(4,5-dimethylthiazol-2-yl)-2-methylbenzamide] | D (protein percentage degradation <30%) | 
5 | < 30 | CC(=O)c1c(C)c2cnc(Nc3ccc(N4CCN(CC(=O)NCCCCNc5cccc(C(=O)Nc6nc(C)c(C)s6)c5C)CC4)cn3)nc2n(C2CCCC2)c1=O [CPD-099, 3-((4-(2-(4-(6-((6-Acetyl-8-cyclopentyl-5-methyl-7-oxo-7,8-dihydropyrido[2,3-d]pyrimidin-2-yl)amino)pyridin-3-yl)piperazin-1-yl)acetamido)butyl)amino)-N-(4,5-dimethylthiazol-2-yl)-2-methylbenzamide] | D (protein percentage degradation <30%) | 
6 | < 30 | CC(=O)c1c(C)c2cnc(Nc3ccc(N4CCN(CC(=O)NCCCCCNc5cccc(C(=O)Nc6nc(C)c(C)s6)c5C)CC4)cn3)nc2n(C2CCCC2)c1=O [CPD-100, 3-((5-(2-(4-(6-((6-Acetyl-8-cyclopentyl-5-methyl-7-oxo-7,8-dihydropyrido[2,3-d]pyrimidin-2-yl)amino)pyridin-3-yl)piperazin-1-yl)acetamido)pentyl)amino)-N-(4,5-dimethylthiazol-2-yl)-2-methylbenzamide] | D (protein percentage degradation <30%) | 
7 | 50 to 80 | CC(=O)c1c(C)c2cnc(Nc3ccc(N4CCN(CC(=O)NCCCCCCNc5cccc(C(=O)Nc6nc(C)c(C)s6)c5C)CC4)cn3)nc2n(C2CCCC2)c1=O [CPD-101, 3-((6-(2-(4-(6-((6-Acetyl-8-cyclopentyl-5-methyl-7-oxo-7,8-dihydropyrido[2,3-d]pyrimidin-2-yl)amino)pyridin-3-yl)piperazin-1-yl)acetamido)hexyl)amino)-N-(4,5-dimethylthiazol-2-yl)-2-methylbenzamide] | A (protein percentage degradation >=80%) | 
8 | 50 to 80 | CC(=O)c1c(C)c2cnc(Nc3ccc(N4CCN(CC(=O)NCCCCCCCNc5cccc(C(=O)Nc6nc(C)c(C)s6)c5C)CC4)cn3)nc2n(C2CCCC2)c1=O [CPD-102, 3-((7-(2-(4-(6-((6-Acetyl-8-cyclopentyl-5-methyl-7-oxo-7,8-dihydropyrido[2,3-d]pyrimidin-2-yl)amino)pyridin-3-yl)piperazin-1-yl)acetamido)heptyl)amino)-N-(4,5-dimethylthiazol-2-yl)-2-methylbenzamide] | A (protein percentage degradation >=80%) | 
9 | < 30 | CC(=O)c1c(C)c2cnc(Nc3ccc(N4CCN(CC(=O)NCCOCCNc5cccc(C(=O)Nc6nc(C)c(C)s6)c5C)CC4)cn3)nc2n(C2CCCC2)c1=O [CPD-103, 3-((2-(2-(2-(4-(6-((6-Acetyl-8-cyclopentyl-5-methyl-7-oxo-7,8-dihydropyrido[2,3-d]pyrimidin-2-yl)amino)pyridin-3-yl)piperazin-1-yl)acetamido)ethoxy)ethyl)amino)-N-(4,5-dimethylthiazol-2-yl)-2-methylbenzamide] | D (protein percentage degradation <30%) | 
10 | 30 to 50 | CC(=O)c1c(C)c2cnc(Nc3ccc(N4CCN(CC(=O)NCCOCCOCCNc5cccc(C(=O)Nc6nc(C)c(C)s6)c5C)CC4)cn3)nc2n(C2CCCC2)c1=O [CPD-104, 3-((2-(2-(2-(2-(4-(6-((6-Acetyl-8-cyclopentyl-5-methyl-7-oxo-7,8-dihydropyrido[2,3-d]pyrimidin-2-yl)amino)pyridin-3-yl)piperazin-1-yl)acetamido)ethoxy)ethoxy)ethyl)amino)-N-(4,5-dimethylthiazol-2-yl)-2-methylbenzamide] | A (protein percentage degradation >=80%) | 
11 | 50 to 80 | CC(=O)c1c(C)c2cnc(Nc3ccc(N4CCN(CC(=O)NCCOCCOCCOCCNc5cccc(C(=O)Nc6nc(C)c(C)s6)c5C)CC4)cn3)nc2n(C2CCCC2)c1=O [CPD-105, 3-((1-(4-(6-((6-Acetyl-8-cyclopentyl-5-methyl-7-oxo-7,8-dihydropyrido[2,3-d]pyrimidin-2-yl)amino)pyridin-3-yl)piperazin-1-yl)-2-oxo-6,9,12-trioxa-3-azatetradecan-14-yl)amino)-N-(4,5-dimethylthiazol-2-yl)-2-methylbenzamide] | A (protein percentage degradation >=80%) | 
12 | 50 to 80 | CC(=O)c1c(C)c2cnc(Nc3ccc(N4CCN(CC(=O)NCCOCCOCCOCCOCCNc5cccc(C(=O)Nc6nc(C)c(C)s6)c5C)CC4)cn3)nc2n(C2CCCC2)c1=O [CPD-106, 3-((1-(4-(6-((6-Acetyl-8-cyclopentyl-5-methyl-7-oxo-7,8-dihydropyrido[2,3-d]pyrimidin-2-yl)amino)pyridin-3-yl)piperazin-1-yl)-2-oxo-6,9,12,15-tetraoxa-3-azaheptadecan-17-yl)amino)-N-(4,5-dimethylthiazol-2-yl)-2-methylbenzamide] | A (protein percentage degradation >=80%) | 
13 | > 80 | CC(=O)c1c(C)c2cnc(Nc3ccc(N4CCN(CC(=O)NCCOCCOCCOCCOCCOCCNc5cccc(C(=O)Nc6nc(C)c(C)s6)c5C)CC4)cn3)nc2n(C2CCCC2)c1=O [CPD-107, 3-((1-(4-(6-((6-Acetyl-8-cyclopentyl-5-methyl-7-oxo-7,8-dihydropyrido[2,3-d]pyrimidin-2-yl)amino)pyridin-3-yl)piperazin-1-yl)-2-oxo-6,9,12,15,18-pentaoxa-3-azaicosan-20-yl)amino)-N-(4,5-dimethylthiazol-2-yl)-2-methylbenzamide] | A (protein percentage degradation >=80%) | 
14 |  | CC(=O)c1c(C)c2cnc(Nc3ccc(N4CCN(C(=O)CCCCNc5ccc(C)c(C(=O)Nc6nc(C)c(C)s6)c5)CC4)cn3)nc2n(C2CCCC2)c1=O [CPD-108, 5-((5-(4-(6-((6-Acetyl-8-cyclopentyl-5-methyl-7-oxo-7,8-dihydropyrido[2,3-d]pyrimidin-2-yl)amino)pyridin-3-yl)piperazin-1-yl)-5-oxopentyl)amino)-N-(4,5-dimethylthiazol-2-yl)-2-methylbenzamide] | D (protein percentage degradation <30%) | < 30
15 | < 30 | CC(=O)c1c(C)c2cnc(Nc3ccc(N4CCN(C(=O)CCCCCCNc5ccc(C)c(C(=O)Nc6nc(C)c(C)s6)c5)CC4)cn3)nc2n(C2CCCC2)c1=O [CPD-109, 5-((7-(4-(6-((6-Acetyl-8-cyclopentyl-5-methyl-7-oxo-7,8-dihydropyrido[2,3-d]pyrimidin-2-yl)amino)pyridin-3-yl)piperazin-1-yl)-7-oxoheptyl)amino)-N-(4,5-dimethylthiazol-2-yl)-2-methylbenzamide] | D (protein percentage degradation <30%) | 
16 |  | CC(=O)c1c(C)c2cnc(Nc3ccc(N4CCN(C(=O)CCOCCNc5ccc(C)c(C(=O)Nc6nc(C)c(C)s6)c5)CC4)cn3)nc2n(C2CCCC2)c1=O [CPD-110, 5-((2-(3-(4-(6-((6-Acetyl-8-cyclopentyl-5-methyl-7-oxo-7,8-dihydropyrido[2,3-d]pyrimidin-2-yl)amino)pyridin-3-yl)piperazin-1-yl)-3-oxopropoxy)ethyl)amino)-N-(4,5-dimethylthiazol-2-yl)-2-methylbenzamide] | D (protein percentage degradation <30%) | < 30
